Data: patent publication EP1631829B1, “METHOD AND APPARATUS FOR CHARACTERIZATION OF INTERACTIONS” (GE Healthcare Bio-Sciences AB, priority 2003, dated 2004)

Target: T1, HSA (Homo sapiens, UniProt P02768)
T1 construct: purchased Sigma A 3782
Assay: two-sample (dual) gradient pulse injection SPR assay, site availability of drugs binding to HSA
Conditions: digitoxin and warfarin, 50 µM each, added individual responses vs mixture, 25 °C

T1 sequence (P02768 25-609): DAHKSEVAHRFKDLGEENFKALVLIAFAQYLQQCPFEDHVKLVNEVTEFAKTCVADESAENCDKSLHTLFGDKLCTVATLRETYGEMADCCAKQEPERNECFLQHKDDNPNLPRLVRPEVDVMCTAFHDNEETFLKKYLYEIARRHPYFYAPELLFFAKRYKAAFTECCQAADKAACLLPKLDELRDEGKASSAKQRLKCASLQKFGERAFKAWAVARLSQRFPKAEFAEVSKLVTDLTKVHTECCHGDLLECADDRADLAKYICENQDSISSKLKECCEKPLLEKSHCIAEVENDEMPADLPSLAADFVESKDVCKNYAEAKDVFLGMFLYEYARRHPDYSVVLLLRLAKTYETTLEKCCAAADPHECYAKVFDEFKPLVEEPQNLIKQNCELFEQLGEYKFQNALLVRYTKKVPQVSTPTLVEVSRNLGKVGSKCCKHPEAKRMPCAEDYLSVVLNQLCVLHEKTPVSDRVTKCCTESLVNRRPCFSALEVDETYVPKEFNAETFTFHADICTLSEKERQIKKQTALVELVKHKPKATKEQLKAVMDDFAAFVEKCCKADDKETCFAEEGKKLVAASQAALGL

C[C@H]1O[C@@H](O[C@H]2[C@@H](O)C[C@H](O[C@H]3[C@@H](O)C[C@H](O[C@H]4CC[C@@]5(C)[C@H](CC[C@@H]6[C@@H]5CC[C@]5(C)[C@@H](C7=CC(=O)OC7)CC[C@]65O)C4)O[C@@H]3C)O[C@@H]2C)C[C@H](O)[C@@H]1O [Digitoxin, digitoxin]
binding site relation on HSA: non-competitive binders
